Assay results reported in PubChem BioAssay AID1963840 (Molecular Pharmacology Branch, DTP, NCI, 2024).

Test system: 695427-040-R-J1-PDC complex spheroid viability
Experiment: Anticancer human tumor 695427-040-R-J1-PDC patient-derived colon adenocarcinoma cell line growth inhibition [POLQ]
Details: for IC50: curve of first compound; for viability, T/C: stronger effect = lower value
Procedure: Multicellular complex tumor spheroid response to Polymerase (POL) inhibitors (novobiocin, ART-558, RP6685) in combination with a variety of drugs and investigational agents in selected tumor cell lines
The POL inhibitors (novobiocin, ART-558, and RP6685) were evaluated both individually and in combination with standard of care and investigational anticancer small molecules within a complex spheroid model of solid tumors. . Complex spheroids include a stromal component modeled by human endothelial cells (HUVEC) and fibroblasts modeled by human mesenchymal stem cells (MSCs). The concentration ranges selected for each drug and investigational agent were based upon clinically achievable concentrations if the clinical Cmax of the agent was known.
Compounds. The drugs and investigational agents: novobiocin (NSC847541), ART-558 (NSC835418), RP-6685 (NSC848927), peposertib (NSC802822), ceralasertib (NSC780249), elimusertib (NSC800525), camonsertib (NSC841442), AZD-1390 (NSC803789), olaparib (NSC753686), talazoparib (NSC767125), rucaparib (NSC756644), sotorasib (NSC818433), MRTX-1133 (NSC836407), SN-38 (NSC673596), topotecan (NSC609699), epotoside (NSC141540), doxorubicin (NSC123127), gemcitabine (NSC613327), 5-fluorouracil (NSC19893), paclitaxel (NSC125973), vemurafenib (NSC761431), MSA-2 (NSC828583), SN-011 (NSC837082), adavosertib (NSC754352), prexasertib (NSC758257), carboplatin (NSC241240) and oxaliplatin (NSC266046), were obtained from the National Cancer Institute (NCI) Developmental Therapeutics Program Chemical Repository (21). The FDA-approved anticancer drug set is available from the Developmental Therapeutics Program at https://dtp.cancer.gov/organization/dscb/obtaining/. […] The stock solutions were prepared in dimethyl sulfoxide (DMSO, Sigma-Aldrich, St. Louis, MO, cat. D2650), except for the platinum compounds which were prepared in saline (Quality Biological, Gaithersburg, MD, cat. 114-055-101), at 800-fold the tested concentration and stored at -70 degrees C prior to their use. All drugs and investigational agents were tested over a range starting from a high concentration at or near the clinical Cmax and decreasing in half-log increments. If the clinical Cmax for an agent had not been determined, the highest concentration tested was 10 microM, except for SN-38, which was tested at a high concentration of 1 microM.
Cell Culture. All cells were maintained in an incubator at 37 degrees C and 5% CO2 with 95% humidity. The PDC lines were cultured according to standard operating procedures established by the NCI PDMR (https://pdmr.cancer.gov). Table 3 of the manuscript, lists the cell lines along with the number of the three cell types plated to form the mct-spheroids and media for tumor cell growth. After thawing, all PDC lines, except 997537-175-T-J1-PDC and 415267-285-R-J2-PDC, were cultured in Matrigel-coated flasks prepared with a working solution of 1X Ham's F-12 nutrient mix, without supplementation (Thermo Fisher Scientific, cat. 11765054), 100 U/mL penicillin-streptomycin (Thermo Fisher Scientific, cat. 15140122), and 2.5% Matrigel (Corning Inc., Corning, NY, cat. 354248) for the first three passages. The two PDC lines 997537-175-T-J1-PDC and 415267-285-R-J2-PDC were cultured on uncoated flasks. The 857933-349-R-J2-PDC line was cultured in 6C/Colon 1B media containing advanced DMEM/F-12 (Thermo Fisher Scientific, cat. 12634028), 10 mM HEPES (Thermo Fisher Scientific, cat. 15630080), 1X GlutaMAX supplement (Thermo Fisher Scientific, cat. 35050061), 0.1 mg/mL primocin (InvivoGen, San Diego, CA, cat. ant-pm-2), 10% defined fetal bovine serum, heat inactivated (HyClone Laboratories Inc., Logan, UT, cat. SH30070.03HI), 50% L-WRN conditioned media (ATCC, cat. CRL-3276), 1.25 mM N-Acetyl-L-cysteine (Sigma-Aldrich, cat. A9165), 10 mM nicotinamide (Sigma-Aldrich, cat. N0636), 1X B-27 supplement (Thermo Fisher Scientific, cat. 17504044), 1X N-2 supplement (Thermo Fisher Scientific, cat. […]

[1] = second compound 0.0316 µM, first compound 0.0316 µM
[2] = second compound 0.0316 µM, first compound 0.1 µM
[3] = second compound 0.1 µM, first compound 0.0316 µM
[4] = second compound 0.1 µM, first compound 0.1 µM
[5] = second compound 0.316 µM, first compound 0.0316 µM
[6] = second compound 0.316 µM, first compound 0.1 µM
[7] = second compound 1 µM, first compound 0.0316 µM
[8] = second compound 1 µM, first compound 0.1 µM
[9] = second compound 3.16 µM, first compound 0.0316 µM
[10] = second compound 3.16 µM, first compound 0.1 µM
[11] = second compound 10 µM, first compound 0.0316 µM
[12] = second compound 10 µM, first compound 0.1 µM
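Further: spheroids exposed to compounds for seven days.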
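Wherever viability, T/C is given: 100% = DMSO vehicle control viability.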

## COc1ccc([C@@H](O)c2cc(-c3ncnc4cc(N5CCOCC5)ccc34)c(F)cc2Cl)nn1 + COC1C(OC(N)=O)C(O)C(Oc2ccc3c(O)c(NC(=O)c4ccc(O)c(CC=C(C)C)c4)c(=O)oc3c2C)OC1(C)C
Second compound 0.0316 µM
  IC50: > 10 µM
Second compound 0.1 µM
  IC50: > 10 µM
Second compound 0.316 µM
  IC50: > 10 µM
Second compound 1 µM
  IC50: > 10 µM
Second compound 3.16 µM
  IC50: > 10 µM
Second compound 10 µM
  IC50: > 10 µM
[1]
  viability, T/C: 104%
[2]
  viability, T/C: 99.5%
Second compound 0.0316 µM, first compound 0.316 µM
  viability, T/C: 105%
Second compound 0.0316 µM, first compound 1 µM
  viability, T/C: 92.9%
Second compound 0.0316 µM, first compound 3.16 µM
  viability, T/C: 75.5%
Second compound 0.0316 µM, first compound 10 µM
  viability, T/C: 56%
[3]
  viability, T/C: 114%
[4]
  viability, T/C: 104%
Second compound 0.1 µM, first compound 0.316 µM
  viability, T/C: 104%
Second compound 0.1 µM, first compound 1 µM
  viability, T/C: 94.2%
Second compound 0.1 µM, first compound 3.16 µM
  viability, T/C: 76.7%
Second compound 0.1 µM, first compound 10 µM
  viability, T/C: 57.9%
[5]
  viability, T/C: 127%
[6]
  viability, T/C: 99.1%
Second compound 0.316 µM, first compound 0.316 µM
  viability, T/C: 99%
Second compound 0.316 µM, first compound 1 µM
  viability, T/C: 89.9%
Second compound 0.316 µM, first compound 3.16 µM
  viability, T/C: 76.8%
Second compound 0.316 µM, first compound 10 µM
  viability, T/C: 51.5%
[7]
  viability, T/C: 94.9%
[8]
  viability, T/C: 92.3%
Second compound 1 µM, first compound 0.316 µM
  viability, T/C: 98.3%
Second compound 1 µM, first compound 1 µM
  viability, T/C: 91.5%
Second compound 1 µM, first compound 3.16 µM
  viability, T/C: 82%
Second compound 1 µM, first compound 10 µM
  viability, T/C: 54.5%
[9]
  viability, T/C: 105%
[10]
  viability, T/C: 101%
Second compound 3.16 µM, first compound 0.316 µM
  viability, T/C: 97%
Second compound 3.16 µM, first compound 1 µM
  viability, T/C: 98.4%
Second compound 3.16 µM, first compound 3.16 µM
  viability, T/C: 83.5%
Second compound 3.16 µM, first compound 10 µM
  viability, T/C: 57.6%
[11]
  viability, T/C: 101%
[12]
  viability, T/C: 89.6%
Second compound 10 µM, first compound 0.316 µM
  viability, T/C: 94.4%
Second compound 10 µM, first compound 1 µM
  viability, T/C: 101%
Second compound 10 µM, first compound 3.16 µM
  viability, T/C: 76.8%
Second compound 10 µM, first compound 10 µM
  viability, T/C: 51.7%

## Cn1ncnc1[C@H]1c2n[nH]c(=O)c3cc(F)cc(c23)N[C@@H]1c1ccc(F)cc1 + COC1C(OC(N)=O)C(O)C(Oc2ccc3c(O)c(NC(=O)c4ccc(O)c(CC=C(C)C)c4)c(=O)oc3c2C)OC1(C)C
Second compound 0.0316 µM
  IC50: > 0.1 µM
Second compound 0.1 µM
  IC50: > 0.1 µM
Second compound 0.316 µM
  IC50: > 0.1 µM
Second compound 1 µM
  IC50: > 0.1 µM
Second compound 3.16 µM
  IC50: > 0.1 µM
Second compound 10 µM
  IC50: > 0.1 µM
Second compound 0.0316 µM, first compound 0.000316 µM
  viability, T/C: 92%
Second compound 0.0316 µM, first compound 0.001 µM
  viability, T/C: 96.6%
Second compound 0.0316 µM, first compound 0.00316 µM
  viability, T/C: 93.5%
Second compound 0.0316 µM, first compound 0.01 µM
  viability, T/C: 105%
[1]
  viability, T/C: 106%
[2]
  viability, T/C: 84.1%
Second compound 0.1 µM, first compound 0.000316 µM
  viability, T/C: 99.4%
Second compound 0.1 µM, first compound 0.001 µM
  viability, T/C: 93.3%
Second compound 0.1 µM, first compound 0.00316 µM
  viability, T/C: 107%
Second compound 0.1 µM, first compound 0.01 µM
  viability, T/C: 101%
[3]
  viability, T/C: 98.4%
[4]
  viability, T/C: 83.8%
Second compound 0.316 µM, first compound 0.000316 µM
  viability, T/C: 106%
Second compound 0.316 µM, first compound 0.001 µM
  viability, T/C: 101%
Second compound 0.316 µM, first compound 0.00316 µM
  viability, T/C: 98.4%
Second compound 0.316 µM, first compound 0.01 µM
  viability, T/C: 106%
[5]
  viability, T/C: 103%
[6]
  viability, T/C: 92.1%
Second compound 1 µM, first compound 0.000316 µM
  viability, T/C: 103%
Second compound 1 µM, first compound 0.001 µM
  viability, T/C: 101%
Second compound 1 µM, first compound 0.00316 µM
  viability, T/C: 96.3%
Second compound 1 µM, first compound 0.01 µM
  viability, T/C: 95.1%
[7]
  viability, T/C: 93.9%
[8]
  viability, T/C: 91%
Second compound 3.16 µM, first compound 0.000316 µM
  viability, T/C: 96.6%
Second compound 3.16 µM, first compound 0.001 µM
  viability, T/C: 90.9%
Second compound 3.16 µM, first compound 0.00316 µM
  viability, T/C: 90.9%
Second compound 3.16 µM, first compound 0.01 µM
  viability, T/C: 98.3%
[9]
  viability, T/C: 105%
[10]
  viability, T/C: 94.6%
Second compound 10 µM, first compound 0.000316 µM
  viability, T/C: 103%
Second compound 10 µM, first compound 0.001 µM
  viability, T/C: 99.6%
Second compound 10 µM, first compound 0.00316 µM
  viability, T/C: 99%
Second compound 10 µM, first compound 0.01 µM
  viability, T/C: 106%
[11]
  viability, T/C: 113%
[12]
  viability, T/C: 101%
